Here are results for 22 compounds from publication PMC7504092, “Synthesis and Antiplasmodial Evaluation of 4-Carboxamido- and 4-Alkoxy-2-Trichloromethyl Quinazolines” (Molecules, 2020).

Read-outs that look alike come from different tables or passages of the source. Some results are limits rather than exact numbers.

Data set [1] can be described thus: Solubility of the tested molecule in the culture medium. Conditions: culture medium of the cytotoxicity test. It is filed as physicochemical. How it is done:
HepG2 cell line was maintained at 37 °C, 5% CO2, at 90% humidity in […] supplemented with 10% fetal bovine serum, 1% L-glutamine (200 mM) and penicillin (100 U/mL)/streptomycin (100 µg/mL) (complete RPMI medium). The cytotoxicity of the tested molecules on the HepG2 (hepatocarcinoma cell line purchased from ATCC, ref HB-8065) cell line was assessed according to the method of Mosmann with slight modifications. Briefly, 5.10^3 cells in 100 µL of complete medium were inoculated into each well of 96-well plates and incubated at 37 °C in humidified 5% CO2. After 24 h incubation, 100 μL of medium with various product concentrations dissolved in DMSO (final concentration less than 0.5% v/v) were added and the plates were incubated for 72 h at 37 °C. Triplicate assays were performed for each sample. Each plate-well was then microscope-examined for possible precipitate formation before the medium was aspirated from the wells. 100 μL of MTT (3-(4,5-dimethyl-2-thiazolyl)-2,5-diphenyl-2H-tetrazolium bromide) solution (0.5 mg/mL in medium without FBS) were then added to each well. Cells were incubated for 2 h at 37 °C. After this time, the MTT solution was removed and DMSO (100 μL) was added to dissolve the resulting blue formazan crystals. Plates were shaken vigorously (700 rpm) for 10 min. The absorbance was measured at 570 nm with 630 nm as reference wavelength using a BIO-TEK ELx808 Absorbance Microplate Reader (LabX, Midland, ON, Canada). DMSO was used as blank and doxorubicin (purchased from Sigma Aldrich) as positive control. Cell viability was calculated as percentage of control (cells incubated without compound). […] CC50 values represent the mean value calculated from three independent experiments.

The test system of data set [2] is K1 P. falciparum strain. Put plainly: In vitro antiplasmodial evaluation (SYBR Green I fluorescence-based method). It is filed as cell-based. Conditions: for SI (selectivity index = CC50/EC50): CC50 HepG2 / EC50 PfK1; for EC50: multi-resistant K1 P. falciparum strain, 72 h incubation, read-out: PfK1 EC50. On the procedure: It was maintained in continuous culture as described previously by Trager and Jensen. […] Parasitemia was maintained daily at between 1 and 3%. The P. falciparum drug susceptibility test was carried out by comparing quantities of DNA in treated and control cultures of parasite in human erythrocytes according to an SYBR Green I fluorescence-based method using a 96-well fluorescence plate reader. […] Duplicate assays were performed for each sample. After incubation, plates were frozen at -20 °C for 24 h. […] Fifteen μL of each sample were transferred to 96-well flat bottom non-sterile black plates (Greiner Bio-one) already containing 15 μL of the SYBR Green I lysis buffer (2X SYBR Green I, 20 mM Tris base pH 7.5, 20 mM EDTA, 0.008% w/v saponin, 0.08% w/v Triton X-100).

A short description of data set [3]: In vitro cytotoxicity evaluation (MTT). Format: cell-based. Conditions: human. How it is done: Triplicate assays were performed for each sample. Each plate-well was then microscope-examined for possible precipitate formation before the medium was aspirated from the wells. 100 μL of MTT (3-(4,5-dimethyl-2-thiazolyl)-2,5-diphenyl-2H-tetrazolium bromide) solution (0.5 mg/mL in medium without FBS) were then added to each well. […] After this time, the MTT solution was removed and DMSO (100 μL) was added to dissolve the resulting blue formazan crystals. Plates were shaken vigorously (700 rpm) for 10 min. The absorbance was measured at 570 nm with 630 nm as reference wavelength using a BIO-TEK ELx808 Absorbance Microplate Reader (LabX, Midland, ON, Canada). DMSO was used as blank and doxorubicin (purchased from Sigma Aldrich) as positive control. Cell viability was calculated as percentage of control (cells incubated without compound). […] CC50 values represent the mean value calculated from three independent experiments.

Data set [4] concerns K1 P. falciparum strain. Particulars: previously described compounds; ref 9 (A), 10 (B), 11 (C), 12 (series D); read-out: Antiplasmodial activity EC50 P. falciparum K1; cited from earlier work.
For data set [5], the system named is HepG2 cell line. Also on record: method as in earlier work. Conditions: previously described compounds; ref 9 (A), 10 (B), 11 (C), 12 (series D); read-out: Cytotoxicity CC50 HepG2; cited from earlier work.
Where [6] appears, read: Plasmodium falciparum, K1, 72 h.

Take `O=C(Nc1nc(C(Cl)(Cl)Cl)nc2ccccc12)c1ccccc1[N+](=O)[O-]` [Molecule 8, 2-Nitro-N-(2-Trichloromethylquinazolin-4-yl)benzamide]: the melting point (in general, the temperature of the solid-liquid transition) amounted to 257 °C. The “solubility (in words)” value in data set [1] is on record as “lack of solubility”. In addition, the “SI (selectivity index = CC50/EC50)” value in data set [2] is on record as above 5.2. Besides, in data set [2] (setting [6]), the EC50 (as a rule, the midpoint of the concentration-response curve) came out at 3 µM. Also, the half-maximal cytotoxic concentration (CC50) (as a rule, the concentration that lowers cell viability or growth by half) at 72 h in data set [3] was above 15.6 µM.
For `Fc1ccc(-c2nc(C(Cl)(Cl)Cl)nc3ccccc23)cc1` [A, 4-(4′-fluorophenyl)-2-trichloromethylquinazoline], the EC50 in data set [4] was 2.5 µM. Besides, in data set [5], the CC50 is above 125 µM.
Take `O=C(Nc1nc(C(Cl)(Cl)Cl)nc2ccccc12)c1ccccn1` [Molecule 17, N-(2-Trichloromethylquinazolin-4-yl)picolinamide]: the melting point worked out at 214 °C. In data set [1], the “solubility (in words)” value is on record as “lack of solubility”. In addition, in data set [2], the “SI (selectivity index = CC50/EC50)” value is recorded as above 0.5. In addition, in data set [2] (setting [6]), the EC50 is 14.5 µM. For the same compound, the CC50 at 72 h in data set [3] was above 7.8 µM.
`C#CC(Oc1nc(C(Cl)(Cl)Cl)nc2ccccc12)C(C)C` (stereo not drawn) [Molecule 33, 4-(4-Methylpent-1-yn-3-yloxy)-2-Trichloromethylquinazoline]: the melting point came out at 96 °C. For the same compound, the “SI (selectivity index = CC50/EC50)” value in data set [2] is reported as below 3. Besides, in data set [2] (setting [6]), the EC50 was above 10 µM. Besides, the CC50 at 72 h in data set [3] was 30.6 µM.
Consider `COc1nc(C(Cl)(Cl)Cl)nc2ccccc12` [Molecule 26, 4-Methoxy-2-Trichloromethylquinazoline], for which the melting point turned out to be 83 °C. In data set [2], the “SI (selectivity index = CC50/EC50)” value worked out at 5.5. In addition, the EC50 in data set [2] (setting [6]) worked out at 7.1 µM. This compound also yielded a CC50 at 72 h in data set [3] of 39.3 µM.
`CCCCC(=O)Nc1nc(C(Cl)(Cl)Cl)nc2ccccc12` [Molecule 24, N-(2-Trichloromethylquinazolin-4-yl)pentanamide] displayed a melting point of 136 °C. In data set [1], the “solubility (in words)” value is reported as “lack of solubility”. For the same compound, the concentration for a half-maximal effect (EC50) in data set [2] (setting [6]) was at most 2 µM. For the same compound, the EC50 in data set [2] came to 1.6 µM. For the same compound, in data set [3], the CC50 at 72 h was 42.3 µM.
`ClCCCOc1nc(C(Cl)(Cl)Cl)nc2ccccc12` [Molecule 37, 4-(3-Chloropropoxy)-2-Trichloromethylquinazoline]: the melting point stood at 77 °C. Further, the “SI (selectivity index = CC50/EC50)” value in data set [2] was 14.4. Also, the EC50 in data set [2] (setting [6]) was determined as 4.2 µM. The compound also displayed a CC50 at 72 h in data set [3] of 60.4 µM.
In turn, `O=C(Nc1nc(C(Cl)(Cl)Cl)nc2ccccc12)C1CCCCC1` [Molecule 25, N-(2-Trichloromethylquinazolin-4-yl)cyclohexanecarboxamide] had a melting point of 214 °C. Moreover, the “SI (selectivity index = CC50/EC50)” value in data set [2] is above 6.5. Further, the EC50 in data set [2] (setting [6]) stood at 2.4 µM. For the same compound, in data set [3], the CC50 at 72 h was above 15.6 µM.
As to `CC(C)(C)C(=O)Nc1nc(C(Cl)(Cl)Cl)nc2ccccc12` [Molecule 23, N-(2-Trichloromethylquinazolin-4-yl)pivalamide], the melting point was 157 °C. Also, the “SI (selectivity index = CC50/EC50)” value in data set [2] amounted to 19.4. In addition, the EC50 in data set [2] (setting [6]) turned out to be 1.8 µM. Besides, half-maximal cytotoxicity in data set [3] (CC50 at 72 h) was put at 34.9 µM.
As to `O=C(Nc1nc(C(Cl)(Cl)Cl)nc2ccccc12)c1ccccc1F` [Molecule 11, 2-Fluoro-N-(2-Trichloromethylquinazolin-4-yl)benzamide], in data set [1], the “solubility (in words)” value is on record as “lack of solubility”. Besides, the EC50 in data set [2] (setting [6]) was 5.23 µM. Further, the CC50 at 72 h in data set [3] is above 15.6 µM.
Regarding `CCN(CC)CCOc1nc(C(Cl)(Cl)Cl)nc2ccccc12` [Molecule 41, N,N-Diethyl-2-[(2-Trichloromethylquinazolin-4-yl)oxy]ethanamine], the melting point was 137 °C. Further, the IC50 (usually the midpoint of a concentration-inhibition curve) in data set [2] (Plasmodium falciparum, K1, Figures 2 and 3, read-out: IC50 P. falci. K1) came to 0.9 µM. The compound further came in with a CC50 at 72 h in data set [3] of 32.3 µM.
On to `CCOc1nc(C(Cl)(Cl)Cl)nc2ccccc12` [Molecule 27, 4-Ethoxy-2-Trichloromethylquinazoline], for which the melting point was 73 °C. Further, the “SI (selectivity index = CC50/EC50)” value in data set [2] is 10. The EC50 in data set [2] (setting [6]) was 4.7 µM. Further, the midpoint of cytotoxicity in data set [3], the CC50 at 72 h, lay at 47.1 µM.
For the compound `O=C(Nc1nc(C(Cl)(Cl)Cl)nc2ccccc12)c1cccc(F)c1` [Molecule 10, 3-Fluoro-N-(2-Trichloromethylquinazolin-4-yl)benzamide], the melting point turned out to be 152 °C. Also, the “SI (selectivity index = CC50/EC50)” value in data set [2] stood at 6.9. Also, the EC50 in data set [2] (setting [6]) was determined as 2.86 µM. This compound returned a CC50 at 72 h in data set [3] of 19.9 µM.
The like results for `O=C(Nc1nc(C(Cl)(Cl)Cl)nc2ccccc12)c1ccccc1` [Molecule 5, N-(2-Trichloromethylquinazolin-4-yl)benzamide] were, in that order, 183 °C, 13.8, 1.76 µM and 24.2 µM.
The compound `CC(=O)Nc1nc(C(Cl)(Cl)Cl)nc2ccccc12` [Molecule 20, N-(2-Trichloromethylquinazolin-4-yl)acetamide] showed a melting point of 217 °C. Also, the “solubility (in words)” value in data set [1] is “lack of solubility”. The EC50 in data set [2] (setting [6]) was above 10 µM. Also, in data set [3], the CC50 at 72 h came to 31.2 µM.
On to `ClC(Cl)(Cl)c1nc(OCCBr)c2ccccc2n1` [Molecule 40, 4-(2-Bromoethoxy)-2-Trichloromethylquinazoline], for which the melting point stood at 100 °C. Besides, the “SI (selectivity index = CC50/EC50)” value in data set [2] is above 28. In data set [2] (setting [6]), the EC50 was determined as 2.2 µM. For the same compound, the CC50 at 72 h in data set [3] is above 62.5 µM.
`CC(C)Oc1nc(C(Cl)(Cl)Cl)nc2ccccc12` [Molecule 30, 4-Isopropoxy-2-Trichloromethylquinazoline] yielded a melting point of 210 °C. For the same compound, in data set [2], the “SI (selectivity index = CC50/EC50)” value was below 10. Further, in data set [2] (K1 strain), the “activity against P. falciparum (in words)” value is “inactive”. Also, the EC50 in data set [2] (setting [6]) is above 10 µM. In addition, in data set [3], the CC50 at 72 h came to 102 µM.
Compound `OCCOc1nc(C(Cl)(Cl)Cl)nc2ccccc12` [Molecule 34, 2-(2-Trichloromethylquinazolin-4-yloxy)ethanol] yielded a melting point of 93 °C. Also, the “SI (selectivity index = CC50/EC50)” value in data set [2] is recorded as 0.8. The EC50 in data set [2] (setting [6]) came to 10 µM. This compound came in with a CC50 at 72 h in data set [3] of 7.9 µM.
On to `CCC(=O)Nc1nc(C(Cl)(Cl)Cl)nc2ccccc12` [Molecule 21, N-(2-Trichloromethylquinazolin-4-yl)propionamide], for which the melting point came to 171 °C. Besides, the “solubility (in words)” value in data set [1] was “lack of solubility”. For the same compound, the “SI (selectivity index = CC50/EC50)” value in data set [2] is reported as above 12.8. Moreover, in data set [2] (setting [6]), the EC50 worked out at 4.9 µM. The CC50 at 72 h in data set [3] was above 62.5 µM.
`CC(=O)NCCOc1nc(C(Cl)(Cl)Cl)nc2ccccc12` [Molecule 42, N-{2-[(2-Trichloromethylquinazolin-4-yl)oxy]ethyl}acetamide] displayed a melting point of 135 °C. Moreover, the “SI (selectivity index = CC50/EC50)” value in data set [2] is recorded as above 30. The EC50 in data set [2] (setting [6]) was 3.3 µM. The same compound gave a CC50 at 72 h in data set [3] above 99.7 µM.
`CC(C)C(=O)Nc1nc(C(Cl)(Cl)Cl)nc2ccccc12` [Molecule 22, N-(2-Trichloromethylquinazolin-4-yl)isobutyramide]: the melting point was found to be 161 °C. The “SI (selectivity index = CC50/EC50)” value in data set [2] was above 9.0. Also, the EC50 in data set [2] (setting [6]) turned out to be 3.5 µM. Besides, the CC50 at 72 h in data set [3] was above 31.2 µM.
`O=[N+]([O-])c1ccc(COc2nc(C(Cl)(Cl)Cl)nc3ccccc23)cc1` [C]: in data set [4], the EC50 was 1.8 µM. In addition, the CC50 in data set [5] is 19.4 µM.
